According to a melting point compilation (Tetko et al.; mined from patent text by program, amines drawn as free bases though some values may be those of a salt):

First: CCOC(=O)/C=C/c1cc2cc(OCc3nc(-c4ccccc4)oc3C)ccc2o1
Second: COc1cc(COc2nn(C)cc2C(=O)N(C)OC)ccc1OCc1nc(-c2ccccc2)oc1C
The melting point of the first is lower: 120 to 121 °C for the first, 138 to 139 °C for the second.

Compared with `O=c1n(CCCCN2CCN(c3cccc(Cl)c3)CC2)nc2n1-c1ccccc1OC2`, `CC(=O)NC[C@H]1CN(c2cc(F)c(N3CCC(n4nnc(N5CCN(Cc6ccccc6)CC5)n4)CC3)c(F)c2)C(=O)O1` is higher in melting point: 132 to 134 °C for the first, 188 to 190 °C for the second.

Compared with `Fc1ccc(-c2ncnc(C(F)(F)F)c2Cl)c(F)c1`, `Cc1ncn(-c2cc(F)ccc2C#N)n1` is higher in melting point: 61 to 63 °C for the first, 117 to 118 °C for the second.

First: CC(C)[C@H](NC(=O)N(C)Cc1ccccn1)C(=O)O
Second: CNC(=O)NC(=O)N(C)c1ccccc1
The melting point of the first is higher: 145 °C for the first, 123 to 125 °C for the second.

First: CCOC(=O)CCNC(=O)c1n[nH]cc1NC(=O)c1cccc(C)n1
Second: CCOC(=O)CC(=O)Nc1ccc([N+](=O)[O-])cc1
The melting point of the first is higher: 228 to 229 °C for the first, 102 to 103 °C for the second.

Compared with `NS(=O)(=O)c1ncccc1SCCCF`, `CCS(=O)(=O)c1cnc(Cl)c(Cl)c1` is higher in melting point: 85 to 86 °C for the first, 141 to 142 °C for the second.

First: N#Cc1ncn2c(C(F)(F)F)cc(-c3cccc(C(F)(F)F)c3)nc12
Second: CCCSc1cn(C)cc(-c2cccc(C(F)(F)F)c2)c1=O
The melting point of the first is higher: 202 °C for the first, 101 to 102 °C for the second.

First: N#Cc1cnc2cc(C#CCO)ccc2c1Nc1ccc(Cl)cc1Cl
Second: CCN(CC)CCC/C=C/c1cc2ncc(C#N)c(Nc3ccc(Sc4nccn4C)c(Cl)c3)c2cc1OC
The melting point of the first is higher: 251 to 253 °C for the first, 229 to 233 °C for the second.

Compared with `CCCCCCOc1ccc(NC(=O)c2cnn(C)c2C)cc1C#N`, `Cc1ccc(C(=O)Cn2cc(Cl)cnc2=O)c(C)c1` is higher in melting point: 150 to 151 °C for the first, 221 to 222 °C for the second.

First: CNC(=O)[C@H]1O[C@@H](n2cnc3c(NCc4cc(Cl)ccc4OCC4OC(O)C(O)C(O)C4O)ncnc32)[C@H](O)[C@@H]1N (some centres undefined)
Second: CCn1cnc2c(Nc3cccc(Cl)c3)nc(N3CCC[C@@H]3CN)nc21
The melting point of the first is higher: 212 to 218 °C for the first, 126 to 129 °C for the second.

Compared with `COC(=O)c1ccc2c(c1)SCCC2NC(=O)OCc1ccccc1` (centres undefined), `CCOC(=O)c1cc(Cl)c(OCc2ccccc2)c(Cl)c1` is lower in melting point: 128 to 130 °C for the first, 66 to 68 °C for the second.

First: C[C@]12CC[C@H](O)CC1=CCC1C2CC[C@@]2(C)C1CC[C@@H]2C1=CC(=O)OC1 (some centres undefined)
Second: CC(C)(C)OC(=O)[C@@H]1CCCN1C(=O)C1CCC1SC(=O)c1ccccc1 (some centres undefined)
The melting point of the first is higher: 286 to 287 °C for the first, 102 to 103 °C for the second.

First: CCOC(=O)c1[nH]c(COC)nc1C(C)(C)O
Second: CCCOC(C)c1cccc2[nH]c3cnc(C(=O)OCC)c(COC)c3c12 (centres undefined)
The melting point of the first is lower: 112 to 113 °C for the first, 127 to 130 °C for the second.

Compared with `COc1nsnc1S(C)(=O)=O`, `COC(=O)CCCc1cc2nc(Cl)ccc2n1S(=O)(=O)c1cccc(N(C)C)c1` is lower in melting point: 110 to 112 °C for the first, 96 to 97 °C for the second.

Compared with `CCc1cc2c(s1)C(C(=O)O)CC2=O` (centres undefined), `CC(C(=O)O)C1CC(=O)N(c2ccc(Cl)cc2)C1` (centres undefined) is lower in melting point: 128 to 132 °C for the first, 63 to 67 °C for the second.

First: COCCOc1ccc(/C=C/C(=O)NS(=O)(=O)c2cccc(C#N)c2)c(Oc2ncc(C(F)(F)F)cc2Cl)c1
Second: Cc1oc(-c2ccccc2Cl)nc1CCOc1ccc(CC2SC(=O)NC2=O)cn1 (centres undefined)
The melting point of the first is higher: 195 to 197 °C for the first, 176 to 177 °C for the second.

First: C=C(Cl)CSC(=S)Nc1ccc(Cl)cc1C
Second: CCC(=O)Nc1nc2ccc(Cl)cc2n2c(CC)nnc12
The melting point of the first is lower: 88 to 90.5 °C for the first, 212 to 215 °C for the second.

First: CCc1cc(Cl)c(NC(C)=O)c(Cl)n1
Second: COC(=O)n1c(=O)oc2c(Cl)c(Cl)c(Cl)cc21
The melting point of the first is lower: 142 °C for the first, 163 to 164 °C for the second.

First: c1ccc(C(OC(c2ccccc2)(c2ccccc2)c2ccccc2)(c2ccccc2)c2ccccc2)cc1
Second: O=P(Oc1ccc(-c2ccc(OP(=O)(c3ccccc3)c3ccccc3)cc2)cc1)(c1ccccc1)c1ccccc1
The melting point of the first is lower: 89 to 91 °C for the first, 233 to 234 °C for the second.

Compared with `Cc1cc(C)c(C=O)c(O)c1`, `Cc1cc(N(C)C)nc2ccc(C=O)cc12` is higher in melting point: 46 to 48 °C for the first, 96 to 99 °C for the second.

First: CNC(=S)SCCC(=O)N1CCC[C@H]1C(=O)O
Second: COC(=O)C1=Cc2cc(Br)cnc2N2CCCC2CC1 (centres undefined)
The melting point of the first is higher: 127 to 129 °C for the first, 98 to 99 °C for the second.

First: COC(=O)c1ccc(Oc2cc3c(cc2C)C(C)(C)CCC3(C)C)cc1
Second: COc1ccc(-c2noc(C)c2-c2ccc(OC)cc2)cc1
The melting point of the first is higher: 133 to 135 °C for the first, 95 to 99 °C for the second.

First: CC(C)(C)c1ccc(C#N)cc1[N+](=O)[O-]
Second: Cc1ccc(C(=O)c2cc(CN(C)C)c(O)c(C(C)(C)C)c2)s1
The melting point of the first is lower: 70.5 to 71.5 °C for the first, 119 to 120 °C for the second.

Compared with `O=C(O)CN1C(=O)C(NC(=O)[C@@H](S)Cc2ccccc2)CCCc2ccccc21` (some centres undefined), `O=C1c2ccccc2C2(c3ccccc3)N1CCS2(=O)=O` (centres undefined) is higher in melting point: 107 to 111 °C for the first, 190 to 193 °C for the second.

First: Clc1cc(Cl)nc(N2CCOCC2)n1
Second: c1ccc(CNc2cc(N3CCCC3)nc(N3CCCC3)n2)cc1
The melting point of the first is higher: 140 °C for the first, 70 to 72 °C for the second.

Compared with `CCOC(=O)c1c(Cn2cnnc2)nc2cc(OC)c(OC)cc2c1-c1ccc(OC)c(OC)c1`, `COC(=O)c1c(-c2cc(C)c(O)c(C)c2)c(C)n2c1-c1cc(OC)c(OC)cc1CC2C` (racemic) is lower in melting point: 226 to 227 °C for the first, 177 to 179 °C for the second.

First: Clc1nc2cc(Cl)c(Cl)c(Cl)c2[nH]1
Second: C=CCNc1nc(C)cc(C)n1
The melting point of the first is higher: 243 to 244 °C for the first, 62 to 63 °C for the second.

First: O=[N+]([O-])c1ccc(NC=C(S(=O)(=O)c2ccccc2)S(=O)(=O)c2ccccc2)nc1
Second: N=C(NS(=O)(=O)C=Cc1ccccc1)c1ccccc1
The melting point of the first is higher: 229 to 231 °C for the first, 192 to 194 °C for the second.

Compared with `Cc1ccc(Sc2nc(C(N)=O)nc3c(C)csc23)cc1`, `Cc1ccc(-c2c([N+](=O)[O-])oc3ccccc23)cc1C` is lower in melting point: 243 to 246 °C for the first, 125 to 133 °C for the second.

First: CN1CCN(c2cccc3c2C[C@H](NC(=O)c2ccc(N4CCOCC4)cc2)CC3)CC1
Second: COc1cccc(Cc2cc3cccc(-c4cccc(C(=O)NC5CCOCC5)c4)c3o2)c1
The melting point of the first is higher: 230 to 231 °C for the first, 146 to 147 °C for the second.

First: N#Cc1ccc(C2(CBr)OCCO2)cc1
Second: N#Cc1coc2ccc(Br)cc2c1=O
The melting point of the first is lower: 92.4 °C for the first, 193 to 200 °C for the second.

First: CCc1nn(C2CCCC2)c2c1CCn1c-2nnc1C(C)(C)C
Second: Cc1ccc(Cn2c(NC3CCN(C)CC3)nc3cccnc32)o1
The melting point of the first is higher: 150 to 151 °C for the first, 131 °C for the second.

First: Brc1ccc(Cc2cc3ccccc3[nH]2)cc1
Second: Clc1ccc(Cn2ccc3cc(OCc4ccc5ccccc5n4)ccc32)cc1
The melting point of the first is higher: 136 °C for the first, 102 to 104 °C for the second.

First: CC(C)(C)[Si](C)(C)N1C(=O)[C@@H](N2C(=O)c3ccccc3C2=O)[C@H]1/C=C/c1ccccc1 (relative stereo)
Second: CC(C(=O)OC(C)(C)C)c1ccc(N2Cc3ccc(Cl)cc3C2=O)cc1 (centres undefined)
The melting point of the first is lower: 167 to 168 °C for the first, 169 to 171 °C for the second.

First: O=C(Oc1cc(F)ccc1F)c1cc2cc(CCl)ccc2oc1=O
Second: CCOc1ccc2c(=O)cc(-c3ccccc3O)oc2c1
The melting point of the first is lower: 137 to 140 °C for the first, 295 to 297 °C for the second.

Compared with `COc1cc2cn(CC3CCCCO3)nc2cc1OC` (centres undefined), `COCC(=O)N(c1c(C)cccc1C)C1CCOC1=O` (centres undefined) is higher in melting point: 90 to 96 °C for the first, 118 to 120 °C for the second.

First: CC(CO)NC1=NS(=O)(=O)c2cnccc2N1 (centres undefined)
Second: CC(=O)NNC(=O)c1ccncc1
The melting point of the first is higher: 213 to 216 °C for the first, 158 to 160 °C for the second.

First: O=c1c2c[nH]c3cccnc3c-2nn1-c1ccccc1
Second: O=C1Nc2cccnc2N(C(=O)CCC#CCN2CCCCC2)c2ccccc21
The melting point of the first is higher: 314 to 316 °C for the first, 197 °C for the second.

Compared with `O=C(c1ccc(Cl)cc1)c1cncnc1`, `CC(C)CC(NC(=O)c1ccc(Cl)cc1)NC(=NC#N)Nc1cccnc1` (centres undefined) is higher in melting point: 110 to 112 °C for the first, 193 to 194 °C for the second.

First: Cc1cc(C(=O)O)cc(C)c1C(O)c1cc(-n2ccnc2)ccc1Cl (centres undefined)
Second: Cc1ccccc1OCCCc1oc(-n2ccnc2)nc1-c1ccc(Cl)cc1
The melting point of the first is higher: 317 to 320 °C for the first, 113 to 114 °C for the second.

Compared with `CCOC(=O)COc1cc2c(c(Cl)c1Cl)C(=O)C(CC#C[Si](C)(C)C)(c1ccccc1)C2` (centres undefined), `Cc1oc(-c2ccccc2)nc1CCOc1ccc(CC(Br)C#N)cn1` (centres undefined) is lower in melting point: 112 to 113 °C for the first, 93 to 94 °C for the second.

Compared with `S=C1Nc2ccccc2Cc2nccn21`, `O=C(NC1C=NC=CC1=O)c1ccccc1F` (centres undefined) is lower in melting point: 182 to 183 °C for the first, 116 to 117 °C for the second.

Compared with `CC1(C)OC(=O)Nc2ccc(-c3cc([N+](=O)[O-])cc([N+](=O)[O-])c3)cc21`, `Cc1ccc(-c2ccc(S(C)(=O)=O)c(F)c2)n1-c1ccc(-c2ccoc2)cc1` is lower in melting point: 297 to 298 °C for the first, 147 to 150 °C for the second.

Compared with `O=C1CC(c2cccc(-n3ccnn3)c2)=Nc2ccc(-c3cccc(F)c3F)cc2N1`, `O=C1COc2ccc(C3=Nc4ccccc4SC3c3ccc(Cl)cc3)cc2N1` (centres undefined) is lower in melting point: 230 °C for the first, 153 to 155 °C for the second.

First: CSc1nccc(NC(N)=NCC(F)(F)F)n1
Second: Cc1ncsc1C(=O)Nc1ccc(-n2nc(C(F)(F)F)c(Cl)c2C2CC2)cc1
The melting point of the first is higher: 201 to 202 °C for the first, 161 to 164 °C for the second.

First: CCCCc1nc2c(OC)ccc(CCN(C)C)c2[nH]1
Second: CCCCN(CCCC)c1ccc(C=Cc2ccc(C=CC3=C(C#N)C(=C(C#N)C#N)OC3(C)C)s2)c(OC)c1
The melting point of the first is lower: 116 to 122 °C for the first, 191 to 192 °C for the second.

First: O=C(O)c1cn(-c2cccc(OC(F)(F)F)c2)cn1
Second: CC(=O)C(Cc1ccc(O)cc1)C(C)=O
The melting point of the first is higher: 173 to 175 °C for the first, 93 to 94.5 °C for the second.

First: Cc1c(Cc2ccccc2)c(=O)n(Cc2ccc(F)cc2)c2cc(OCc3nnn[nH]3)cc(OCc3nnn[nH]3)c12
Second: CCOCc1nc2c(N)nc3ccccc3c2n1CCCc1cc(-c2ccccc2)no1
The melting point of the first is lower: 126 to 132 °C for the first, 171 to 172 °C for the second.

First: C#CCOc1c(OC)cc(/C=C/C(=O)/C=C/c2cc(OC)c(OC)c(OC)c2)cc1OC
Second: CCOc1c(NCc2ccc(Br)cc2CC)c(=O)c1=O
The melting point of the first is lower: 118 to 120 °C for the first, 217 to 224 °C for the second.

First: CNC(=N[N+](=O)[O-])N(C)Cc1ccc(Cl)nc1
Second: COC(CN(C)C(=O)Nc1cc(C(C)(C)C)on1)OC
The melting point of the first is higher: 136 to 137 °C for the first, 80 to 84 °C for the second.

First: Cc1cc2c(c(C)c1Br)C(c1ccccc1)CO2 (centres undefined)
Second: CN(C)CC1CCCCN1CC(=O)N1c2ccccc2NC(=O)c2cscc21 (centres undefined)
The melting point of the first is lower: 135 to 136 °C for the first, 208 to 209 °C for the second.

First: CC1OC(=S)c2c(O)cccc21 (centres undefined)
Second: COC1CSC2=C(SC1)C(OC(=O)N1CCN(C)CC1)N(c1ccc3ccc(C)nc3n1)C2=O (centres undefined)
The melting point of the first is lower: 39 to 41 °C for the first, 220 °C for the second.
